Source: US20170217948A1, “XANTHINE OXIDASE INHIBITOR” (Teijin Pharma Limited, priority 2014, published 2017)
Where two headings read alike, the source gives them in different places.

Legend:
[1] = target: XO activity (oxidase-type xanthine oxidoreductase) (Rattus norvegicus, UniProt P22985); assay: Prolonged inhibition of tissue and plasma XO activity after oral administration (pterin-based assay); details: 27 h
Protocol: The tissue includes liver, kidney, adipose tissue, intestine and vessel.
A test compound suspended in a 0.5% methylcellulose solution was administered to 7 to 9 week-old Sprague-Dawley male rats (Japan Charles River Co.) by oral gavage administration using a feeding needle. The blood was collected from the abdominal vein and tissue was collected at 24 or 27 hours after administration. Plasma sample was prepared by centrifugation.
Tissue XO activity, tissue XOR activity and plasma XO activity were measured by the pterin-based assay which utilizes the reaction that pterin is oxidized by each type of xanthine oxidoreductase to produce fluorescent isoxanthopterin. […] Then the homogenates were centrifuged 12,000 rpm for 15 min at 4° C. When measured XO activity, the supernatant of tissue and plasma were respectively co-incubated with 50 μM pterin solution at 37° C. When measured XOR activity, the supernatant of tissue homogenate was co-incubated with 50 μM pterin and 50 μM methylene blue solution at 37° C. As a control, oxidase-type xanthine oxidoreductase (from buttermilk, manufactured by Calbiochem Novabiochem Corp.) was also incubated with pterin solution in the same manner. XO activity and XOR activity of the samples were determined from fluorescence intensity which normalized by the intensity value of control and protein concentration.
The percentage of XO activity inhibition and XOR activity inhibition were determined by the following expression:
Percentage of XO or XOR activity inhibition (%)=(XO or XOR activity of the control animal−XO or XOR activity of the test compound-administered animal)×100/XO or XOR activity of the control animal.

[2] = Hypouricemic effect (oxonic acid-induced hyperuricemic beagle dogs); type: in vivo; details: hyperuricemic beagle dog, oral, 10 mg/kg, 8 hours after administration
Protocol: Potassium oxonate (50 mg/kg) was subcutaneously administrated before and 4 hours after compound administration. After the blood was collected from the cephalic vein at 8 hours after administration, the plasma was separated. The level of uric acid in the plasma sample was measured by LC-MS/MS method and the percentage of hypouricemic effect was determined by the following expression:
Percentage of hypouricemic effect (%)=(Level of uric acid of the control animal−Level of uric acid of the test compound-administered animal)×100/Level of uric acid of the control animal.

[3] = read-out: % inhibition of XO activity (vs. vehicle), Kidney, 1 mg/kg, 27 hours after administration
[4] = read-out: % inhibition of XO activity (vs. vehicle), Kidney, 10 mg/kg, 27 hours after administration
[5] = read-out: % inhibition of XO activity (vs. vehicle), Liver, 1 mg/kg, 27 hours after administration
[6] = read-out: % inhibition of XO activity (vs. vehicle), Liver, 10 mg/kg, 27 hours after administration
[7] = read-out: % inhibition of XO activity (vs. vehicle), Plasma, 1 mg/kg, 27 hours after administration
[8] = read-out: % inhibition of XO activity (vs. vehicle), Plasma, 10 mg/kg, 27 hours after administration

Chain of XO activity (oxidase-type xanthine oxidoreductase) (P22985 whole entry): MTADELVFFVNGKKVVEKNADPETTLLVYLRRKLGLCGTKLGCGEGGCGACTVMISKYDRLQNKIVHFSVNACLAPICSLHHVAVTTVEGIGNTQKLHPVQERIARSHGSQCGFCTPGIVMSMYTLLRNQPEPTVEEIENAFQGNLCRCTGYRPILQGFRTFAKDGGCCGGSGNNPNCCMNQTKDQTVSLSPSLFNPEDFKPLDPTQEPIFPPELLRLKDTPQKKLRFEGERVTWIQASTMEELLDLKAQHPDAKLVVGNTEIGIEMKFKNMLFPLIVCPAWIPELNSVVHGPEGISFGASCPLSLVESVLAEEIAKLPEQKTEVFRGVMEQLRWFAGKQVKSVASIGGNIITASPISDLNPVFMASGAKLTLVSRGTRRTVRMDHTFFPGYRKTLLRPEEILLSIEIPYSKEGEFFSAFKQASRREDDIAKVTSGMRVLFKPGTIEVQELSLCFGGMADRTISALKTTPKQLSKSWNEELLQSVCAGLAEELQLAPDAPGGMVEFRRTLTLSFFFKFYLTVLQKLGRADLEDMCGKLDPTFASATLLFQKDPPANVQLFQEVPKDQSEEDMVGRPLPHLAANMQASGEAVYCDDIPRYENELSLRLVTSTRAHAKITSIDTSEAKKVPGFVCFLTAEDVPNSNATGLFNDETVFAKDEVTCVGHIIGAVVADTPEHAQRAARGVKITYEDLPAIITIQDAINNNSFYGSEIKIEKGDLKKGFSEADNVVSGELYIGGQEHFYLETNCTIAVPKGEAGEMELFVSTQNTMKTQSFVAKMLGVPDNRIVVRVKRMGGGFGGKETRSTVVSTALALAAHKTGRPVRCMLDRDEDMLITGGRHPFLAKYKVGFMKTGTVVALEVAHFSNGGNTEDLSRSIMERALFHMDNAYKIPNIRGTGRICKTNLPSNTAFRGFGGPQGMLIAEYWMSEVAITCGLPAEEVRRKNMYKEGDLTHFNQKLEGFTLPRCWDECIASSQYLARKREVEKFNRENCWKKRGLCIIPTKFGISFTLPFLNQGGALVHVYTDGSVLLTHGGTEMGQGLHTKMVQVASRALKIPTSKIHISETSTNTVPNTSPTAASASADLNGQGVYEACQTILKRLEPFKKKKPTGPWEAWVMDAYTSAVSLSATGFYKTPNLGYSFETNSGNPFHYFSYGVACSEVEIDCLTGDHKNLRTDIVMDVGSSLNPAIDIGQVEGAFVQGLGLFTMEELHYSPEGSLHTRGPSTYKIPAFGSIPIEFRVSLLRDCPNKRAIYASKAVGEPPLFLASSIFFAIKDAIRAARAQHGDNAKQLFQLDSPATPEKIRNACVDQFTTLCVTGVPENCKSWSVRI

| SMILES | inhibition in vivo at 1 mg/kg [1, 3] [%] | inhibition in vivo at 10 mg/kg [1, 4] [%] | inhibition in vivo at 1 mg/kg [1, 5] [%] | inhibition in vivo at 10 mg/kg [1, 6] [%] | inhibition in vivo at 1 mg/kg [1, 7] [%] | inhibition in vivo at 10 mg/kg [1, 8] [%] | hypouricemic effect [2] |
| --- | --- | --- | --- | --- | --- | --- | --- |
| Cc1nc(-c2ccc(OCC(C)C)c(-n3ccnn3)c2)sc1C(=O)O [Compound 17, 4-methyl-2-[4-(2-methylpropoxy)-3-(1H-1,2,3-triazol-1-yl)phenyl]-1,3-thiazole-5-carboxylic acid] | ≥ 60 | ≥ 70 | ≥ 80 | ≥ 80 | ≥ 25 | ≥ 40 | – |
| Cc1nc(-c2ccc(OCC(C)C)c(-n3cnnn3)c2)sc1C(=O)O [Compound 25, 4-methyl-2-[4-(2-methylpropoxy)-3-(1H-1,2,3,4-tetrazol-1-yl)phenyl]-1,3-thiazole-5-carboxylic acid] | – | – | – | – | – | – | showed a hypouricemic effect |
| Cc1nc(-c2ccc(OCC(C)(C)C)c(-n3cnnn3)c2)sc1C(=O)O [Compound 26, 2-[4-(2,2-dimethylpropoxy)-3-(1H-1,2,3,4-tetrazol-1-yl)phenyl]-4-methyl-1,3-thiazole-5-carboxylic acid] | ≥ 60 | ≥ 70 | ≥ 80 | ≥ 80 | ≥ 25 | ≥ 40 | – |
